The assay has as its system P388 leukemia ip, CD2F1 mice, survival T/C. Briefly: NCI In Vivo Anticancer Drug Screen. Data for tumor model P388 Leukemia (intraperitoneal) in CD2F1 (CDF1) mice. Conditions: endpoint: median survival time, higher = longer survival. The method, boiled down: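 Mice carrying the transplanted tumor received test compound or vehicle. Survival was recorded in each group, and the value is the treated-group measurement divided by that of the vehicle-treated control group.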

Setting [1] is: dose: 50.0 mg/kg/injection, schedule: Q01DX009 (ip), vehicle: saline with Tween-80.
Where [2] appears, read: dose: 100.0 mg/kg/injection, schedule: Q01DX009 (ip), vehicle: saline with Tween-80.
[3] abbreviates: dose: 25.0 mg/kg/injection, schedule: Q01DX009 (ip), vehicle: saline with Tween-80.
Setting [4] is: dose: 100.0 mg/kg/injection, schedule: Q04DX003 (ip), vehicle: saline with Tween-80.
Where [5] appears, read: dose: 400.0 mg/kg/injection, schedule: Q04DX003 (ip), vehicle: saline with Tween-80.
The mark [6] stands for this setting: dose: 50.0 mg/kg/injection, schedule: Q01DX005 (ip), vehicle: Klucel (hydroxypropylcellulose) (HPC).
[7] abbreviates: dose: 100.0 mg/kg/injection, schedule: Q01DX005 (ip), vehicle: Klucel (hydroxypropylcellulose) (HPC).
Where [8] appears, read: dose: 200.0 mg/kg/injection, schedule: Q01DX005 (ip), vehicle: Klucel (hydroxypropylcellulose) (HPC).
[9] abbreviates: dose: 50.0 mg/kg/injection, schedule: Q01DX009 (ip), vehicle: Klucel (hydroxypropylcellulose) (HPC).
Setting [10] is: dose: 100.0 mg/kg/injection, schedule: Q01DX009 (ip), vehicle: Klucel (hydroxypropylcellulose) (HPC).

“And” between values parts separate entries of the source, which are not always exact repeats. Identical values can stand only once. Inconclusive results and toxic doses are left out.

On to `Cc1cccc(/C=N/Nc2nc3ccccc3s2)n1`, for which the T/C runs as follows: (dose: 6.25 mg/kg/injection, schedule: Q01DX005 (ip), vehicle: saline with Tween-80) 90 % of control; (dose: 12.5 mg/kg/injection, schedule: Q01DX005 (ip), vehicle: saline with Tween-80) 89 % of control; (dose: 200.0 mg/kg/injection, schedule: Q01DX005 (ip), vehicle: saline with Tween-80) 99 % of control.
In the case of `NNC(=O)c1cccc(C(=O)NN)c1`, the T/C under setting [1] is 94 % of control; the T/C under setting [2] is 97 % of control; the T/C (dose: 200.0 mg/kg/injection, schedule: Q01DX009 (ip), vehicle: saline with Tween-80) is 92 % of control.
Regarding `CNC(=O)OCC[N+](C)(C)C`, the T/C runs as follows: (dose: 3.12 mg/kg/injection, schedule: Q01DX009 (ip), vehicle: saline) 101 % of control; (dose: 6.25 mg/kg/injection, schedule: Q01DX009 (ip), vehicle: saline) 101 % of control.
On to `CCN1C=C/C(=C/c2cc3scc(-c4ccccc4)[n+]3c3ccccc23)c2ccccc21`, for which, under “dose: 0.32 mg/kg/injection, schedule: Q04DX003 (ip), vehicle: saline sonified”, the T/C is 109 % of control.
`CCCCNc1ccc(Nc2ccccc2)cc1`: the T/C (dose: 6.25 mg/kg/injection, schedule: Q01DX009 (ip), vehicle: saline with Tween-80) was 95 % of control; the T/C (dose: 12.5 mg/kg/injection, schedule: Q01DX009 (ip), vehicle: saline with Tween-80) is 108 % of control; the T/C under setting [3] was 115 % of control; the T/C under setting [1] was 121 % of control.
For the compound `COc1cccc2c1C(=O)c1c(O)c3c(c(O)c1C2=O)C[C@@](O)(C(=O)CO)C[C@@H]3OC1CC(N2CCOCC2C#N)C(O)C(C)O1` (some centres not stated), the T/C runs as follows: (dose: 9.38 micrograms/kg/injection, schedule: Q04DX003 (ip), vehicle: saline with Tween-80) 191 % of control and 198 % of control; (dose: 9.38 micrograms/kg/injection, schedule: Q04DX003 (ip), vehicle: water) 105 % of control; (dose: 15.0 micrograms/kg/injection, schedule: Q04DX003 (iv), vehicle: saline + alcohol) 180 % of control; (dose: 18.75 micrograms/kg/injection, schedule: Q04DX003 (ip), vehicle: saline with Tween-80) 252 % of control and 260 % of control; (dose: 18.75 micrograms/kg/injection, schedule: Q04DX003 (ip), vehicle: water) 107 % of control; (dose: 22.0 micrograms/kg/injection, schedule: Q04DX003 (iv), vehicle: saline + alcohol) 180 % of control. The T/C is 110 % of control (dose: 37.5 micrograms/kg/injection, schedule: Q04DX003 (ip), vehicle: saline with Tween-80); 178 % of control and 196 % of control (dose: 75.0 micrograms/kg/injection, schedule: Q04DX003 (ip), vehicle: water); 111 % of control (dose: 150.0 micrograms/kg/injection, schedule: Q04DX003 (ip), vehicle: water); 89 % of control (dose: 300.0 micrograms/kg/injection, schedule: Q04DX003 (ip), vehicle: water).
As for `CC1CCCCC1OC(=O)Nc1ccccc1` (configuration not stated), the T/C runs as follows: (dose: 50.0 mg/kg/injection, schedule: Q01DX009 (ip), vehicle: saline) 105 % of control; (dose: 100.0 mg/kg/injection, schedule: Q01DX009 (ip), vehicle: saline) 101 % of control; (dose: 200.0 mg/kg/injection, schedule: Q01DX009 (ip), vehicle: saline) 100 % of control.
As for `NC(=S)N/N=C\c1ccc(/C=N/NC(N)=S)cc1`, the T/C reads like this: under setting [4], 91 % of control; under setting [5], 86 % of control.
For the compound `CC(C)(C)OC(=O)NC(Cc1cnc[nH]1)C(=O)O` (configuration not stated), the T/C was 90 % of control under setting [6], 99 % of control under setting [7] and 98 % of control under setting [8].
Turning to `COc1ccc2c(NCCCCCCCCNc3c4ccc(Cl)cc4nc4cc(OC)ccc34)c3ccc(Cl)cc3nc2c1`, the T/C by setting is: (dose: 0.63 mg/kg/injection, schedule: Q01DX009 (ip), vehicle: other) 117 % of control; (dose: 1.25 mg/kg/injection, schedule: Q01DX009 (ip), vehicle: other) 100 % of control; (dose: 2.5 mg/kg/injection, schedule: Q01DX009 (ip), vehicle: other) 96 % of control; (dose: 5.0 mg/kg/injection, schedule: Q01DX009 (ip), vehicle: other) 105 % of control; (dose: 10.0 mg/kg/injection, schedule: Q01DX009 (ip), vehicle: other) 100 % of control; (dose: 20.0 mg/kg/injection, schedule: Q01DX009 (ip), vehicle: other) 88 % of control.
Take `CCCCCCCC/C=C/CCCCCCCC(=O)OCC(=O)OCC`: the T/C by setting is: under setting [9], 102 % of control; under setting [10], 93 % of control; (dose: 200.0 mg/kg/injection, schedule: Q01DX009 (ip), vehicle: Klucel (hydroxypropylcellulose) (HPC)) 104 % of control.
Consider `COC(=O)C1=C(O)C(C(=O)OC)=C2C1=C(C(=O)OC)C(=O)C2C(=O)OC` (configuration not stated), for which the T/C is, setting by setting: (dose: 50.0 mg/kg/injection, schedule: Q01DX005 (ip), vehicle: water) 97 % of control; (dose: 100.0 mg/kg/injection, schedule: Q01DX005 (ip), vehicle: water) 98 % of control; (dose: 200.0 mg/kg/injection, schedule: Q01DX005 (ip), vehicle: water) 95 % of control.
Regarding `COc1ccc(-c2coc3cc(OC4OC(CO)C(O)C(O)C4O)cc(O)c3c2=O)cc1` (configuration not stated), the T/C under setting [3] is 98 % of control, the T/C under setting [1] was 92 % of control and the T/C under setting [2] was 94 % of control.
Consider `CCC(=O)/C(=C\c1ccccc1Cl)C(C)=O`, for which the T/C by setting is: under setting [4], 105 % of control; (dose: 200.0 mg/kg/injection, schedule: Q04DX003 (ip), vehicle: saline with Tween-80) 110 % of control; under setting [5], 95 % of control.
Take `O=C1C=C(N2C3C4CCC(C4)C32)C(=O)C=C1c1ccccc1` (configuration not stated): the T/C runs as follows: (dose: 100.0 mg/kg/injection, schedule: Q01DX001 (ip), vehicle: other) 102 % of control; (dose: 200.0 mg/kg/injection, schedule: Q01DX001 (ip), vehicle: other) 109 % of control; (dose: 400.0 mg/kg/injection, schedule: Q01DX001 (ip), vehicle: other) 111 % of control.
On to `CCCCSc1nc2ccc(N=Cc3ccccc3O)cc2s1`, for which the T/C is, setting by setting: under setting [9], 103 % of control; under setting [10], 99 % of control.
In the case of `O=C(Nc1ccc2oc3ccc(Cl)cc3c(=O)c2c1)c1ccc(Cl)cc1Cl`, the T/C under setting [6] was 97 % of control, the T/C under setting [7] was 96 % of control and the T/C under setting [8] is 96 % of control.
`COc1ccc(N/C=C2\C(=O)CCc3c2oc2cc(Cl)c(O)c(Cl)c32)cc1`: the T/C (dose: 15.0 mg/kg/injection, schedule: Q01DX005 (ip), vehicle: Klucel (hydroxypropylcellulose) (HPC)) was 93 % of control; the T/C (dose: 30.0 mg/kg/injection, schedule: Q01DX005 (ip), vehicle: Klucel (hydroxypropylcellulose) (HPC)) was 99 % of control; the T/C (dose: 60.0 mg/kg/injection, schedule: Q01DX005 (ip), vehicle: Klucel (hydroxypropylcellulose) (HPC)) is 107 % of control and 93 % of control; the T/C (dose: 120.0 mg/kg/injection, schedule: Q01DX005 (ip), vehicle: Klucel (hydroxypropylcellulose) (HPC)) is 102 % of control.
For the compound `N#Cc1ccc(N2CCCC2)c(C#N)c1Cl`, the T/C is 100 % of control under setting [6], 96 % of control under setting [7] and 99 % of control under setting [8].
For `Nc1nc(=O)n(C2CC(O)C(CO)O2)cc1Cl` (configuration not stated), the T/C by setting is: (dose: 25.0 mg/kg/injection, schedule: Q01DX005 (ip), vehicle: saline) 98 % of control; (dose: 50.0 mg/kg/injection, schedule: Q01DX005 (ip), vehicle: saline) 105 % of control; (dose: 100.0 mg/kg/injection, schedule: Q01DX005 (ip), vehicle: saline) 100 % of control; (dose: 200.0 mg/kg/injection, schedule: Q01DX005 (ip), vehicle: saline) 110 % of control; (dose: 400.0 mg/kg/injection, schedule: Q01DX005 (ip), vehicle: saline) 107 % of control.
Take `O=C1C(c2ccccc2)=C(c2ccccc2)/C1=C/c1ccc(Cl)cc1`: the T/C (dose: 100.0 mg/kg/injection, schedule: Q01DX001 (ip), vehicle: Klucel (hydroxypropylcellulose) (HPC)) is 101 % of control; the T/C (dose: 200.0 mg/kg/injection, schedule: Q01DX001 (ip), vehicle: Klucel (hydroxypropylcellulose) (HPC)) is 105 % of control; the T/C (dose: 400.0 mg/kg/injection, schedule: Q01DX001 (ip), vehicle: Klucel (hydroxypropylcellulose) (HPC)) is 104 % of control.

For the origin of these results see PubChem BioAssay AID330 (DTP/NCI, 2004).
